{"source": "paper PMC10023787", "about": "“Trio-pharmacophore DNA-encoded chemical library for simultaneous selection of fragments and linkers” (Nature Communications, 2023)", "key": {"MMP-9": {"target": "T1, MMP-9 (Homo sapiens, UniProt P14780)", "T1 construct": "purchased Sino Biological 10327-HNAH", "T1 sequence (P14780 107-707 limits assumed)": "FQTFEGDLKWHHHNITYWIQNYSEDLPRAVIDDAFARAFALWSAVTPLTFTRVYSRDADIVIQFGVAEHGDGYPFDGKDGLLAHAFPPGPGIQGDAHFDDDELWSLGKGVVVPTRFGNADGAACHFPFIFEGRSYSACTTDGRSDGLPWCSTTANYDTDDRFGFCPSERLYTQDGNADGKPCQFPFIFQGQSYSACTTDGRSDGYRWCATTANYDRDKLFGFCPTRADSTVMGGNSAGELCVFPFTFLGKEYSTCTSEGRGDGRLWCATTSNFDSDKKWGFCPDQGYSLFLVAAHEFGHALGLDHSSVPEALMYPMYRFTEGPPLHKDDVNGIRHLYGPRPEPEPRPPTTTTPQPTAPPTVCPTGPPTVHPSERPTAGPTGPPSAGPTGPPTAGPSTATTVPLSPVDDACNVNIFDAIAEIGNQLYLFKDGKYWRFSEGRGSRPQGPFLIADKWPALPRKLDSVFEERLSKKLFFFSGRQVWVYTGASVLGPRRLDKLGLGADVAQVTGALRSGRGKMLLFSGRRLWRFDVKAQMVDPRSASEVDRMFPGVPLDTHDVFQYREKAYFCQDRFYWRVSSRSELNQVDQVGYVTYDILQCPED", "test": "MMP-9 inhibition assay (fluorogenic peptide substrate)", "type": "biochemical", "in_short": "(§1)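 Hydrolysis of DNP-Pro-Leu-Gly-Met-Trp-Ser-Arg (25 μM final) was tracked kinetically at em 360 nm over 30 min. Enzymes, APMA-activated and at 10 nM (MMP-9) or 6.5 nM (MMP-2) final, sat 30 min at RT with inhibitor in pH 7.5 Tris buffer with CaCl2 and Brij 35 first. Logistic fitting of Vmax against concentration gave IC50, in triplicate.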"}, "MMP-2": {"target": "T2, MMP-2 (Homo sapiens, UniProt P08253)", "T2 construct": "purchased Sino Biological 10082-HNAH", "T2 sequence (P08253 110-660)": "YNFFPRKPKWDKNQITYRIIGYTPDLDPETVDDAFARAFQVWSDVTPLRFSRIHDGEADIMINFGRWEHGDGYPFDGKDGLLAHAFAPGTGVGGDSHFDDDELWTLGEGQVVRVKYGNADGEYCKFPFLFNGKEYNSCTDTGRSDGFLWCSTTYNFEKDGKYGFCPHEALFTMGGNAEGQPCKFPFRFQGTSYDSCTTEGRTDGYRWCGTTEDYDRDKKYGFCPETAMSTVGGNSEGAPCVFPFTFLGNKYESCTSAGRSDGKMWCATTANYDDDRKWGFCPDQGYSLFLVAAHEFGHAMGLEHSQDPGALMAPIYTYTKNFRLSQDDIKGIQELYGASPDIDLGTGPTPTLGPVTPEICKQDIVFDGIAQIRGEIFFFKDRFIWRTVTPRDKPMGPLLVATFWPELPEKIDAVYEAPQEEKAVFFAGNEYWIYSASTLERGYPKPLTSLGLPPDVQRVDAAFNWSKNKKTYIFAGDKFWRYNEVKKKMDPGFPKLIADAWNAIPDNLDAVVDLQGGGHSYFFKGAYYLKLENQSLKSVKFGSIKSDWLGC", "test": "MMP-2 inhibition assay (fluorogenic peptide substrate)", "type": "biochemical", "in_short": "as §1"}, "[1]": {"conditions": "read-out: Mean (MMP-9, Supplementary fig 16)"}, "[2]": {"conditions": "read-out: Mean (MMP-9 dose-response, Supplementary fig 15)"}, "[3]": {"conditions": "read-out: Mean (dose-response, Supplementary fig 17)"}, "[4]": {"conditions": "read-out: Normalized activity (Mean)"}, "[5]": {"conditions": "read-out: Mean (MMP-2, Supplementary fig 16)"}, "[6]": {"conditions": "read-out: Mean (MMP-2 dose-response, Supplementary fig 15)"}}, "note": "Read-outs that look alike come from different tables or passages of the source."}
{"smiles": "O=C(O)c1cncc(O)c1", "note": "[Compound 828]", "values": [{"measurement": "inhibitory effect", "setting": "MMP-9; in words", "value": "high µM range"}, {"measurement": "IC50", "setting": "MMP-9; mean ± SE, n.d: not detected, Fig. 5e prints no unit, µM, read-out: IC50", "value": "271 ± 12.4", "unit": "µM"}, {"measurement": "remaining activity at 0.08 µM", "setting": "MMP-9; [1]", "value": 98.6, "unit": "%"}, {"measurement": "remaining activity at 0.39 µM", "setting": "MMP-9; [1]", "value": 97.4, "unit": "%"}, {"measurement": "remaining activity at 1.95 µM", "setting": "MMP-9; [1]", "value": 84.3, "unit": "%"}, {"measurement": "remaining activity at 9.75 µM", "setting": "MMP-9; [1]", "value": 88.7, "unit": "%"}, {"measurement": "remaining activity at 48.76 µM", "setting": "MMP-9; [1]", "value": 80.3, "unit": "%"}, {"measurement": "remaining activity at 243.8 µM", "setting": "MMP-9; [1]", "value": 54.4, "unit": "%"}, {"measurement": "remaining activity at 1219 µM", "setting": "MMP-9; [1]", "value": 0, "unit": "%"}, {"measurement": "remaining activity at 0.08 µM", "setting": "MMP-9; [2]", "value": 98.6, "unit": "%"}, {"measurement": "remaining activity at 0.39 µM", "setting": "MMP-9; [2]", "value": 97.4, "unit": "%"}, {"measurement": "remaining activity at 1.95 µM", "setting": "MMP-9; [2]", "value": 84.3, "unit": "%"}, {"measurement": "remaining activity at 9.75 µM", "setting": "MMP-9; [2]", "value": 88.7, "unit": "%"}, {"measurement": "remaining activity at 48.76 µM", "setting": "MMP-9; [2]", "value": 80.3, "unit": "%"}, {"measurement": "remaining activity at 243.8 µM", "setting": "MMP-9; [2]", "value": 54.4, "unit": "%"}, {"measurement": "remaining activity at 1219 µM", "setting": "MMP-9; [2]", "value": 0, "unit": "%"}, {"measurement": "remaining activity at 0.08 µM", "setting": "MMP-9; [3]", "value": 98.6, "unit": "%"}, {"measurement": "remaining activity at 0.39 µM", "setting": "MMP-9; [3]", "value": 97.4, "unit": "%"}, {"measurement": "remaining activity at 1.95 µM", "setting": "MMP-9; [3]", "value": 84.3, "unit": "%"}, {"measurement": "remaining activity at 9.75 µM", "setting": "MMP-9; [3]", "value": 88.7, "unit": "%"}, {"measurement": "remaining activity at 48.76 µM", "setting": "MMP-9; [3]", "value": 80.3, "unit": "%"}, {"measurement": "remaining activity at 243.8 µM", "setting": "MMP-9; [3]", "value": 54.4, "unit": "%"}, {"measurement": "remaining activity at 1219 µM", "setting": "MMP-9; [3]", "value": 0, "unit": "%"}, {"measurement": "remaining activity at 0.078016 µM", "setting": "MMP-9; [4]", "value": 98.6, "unit": "%"}, {"measurement": "remaining activity at 0.39008 µM", "setting": "MMP-9; [4]", "value": 97.4, "unit": "%"}, {"measurement": "remaining activity at 1.9504 µM", "setting": "MMP-9; [4]", "value": 84.3, "unit": "%"}, {"measurement": "remaining activity at 9.752 µM", "setting": "MMP-9; [4]", "value": 88.7, "unit": "%"}, {"measurement": "remaining activity at 48.76 µM", "setting": "MMP-9; [4]", "value": 80.3, "unit": "%"}, {"measurement": "remaining activity at 243.8 µM", "setting": "MMP-9; [4]", "value": 54.4, "unit": "%"}, {"measurement": "remaining activity at 1219 µM", "setting": "MMP-9; [4]", "value": 0, "unit": "%"}, {"measurement": "inhibitory effect", "setting": "MMP-2; in words", "value": "high µM range"}, {"measurement": "IC50", "setting": "MMP-2; mean ± SE, n.d: not detected, Fig. 5d unit inferred, µM, read-out: IC50", "value": "385 ± 67.3", "unit": "µM"}, {"measurement": "remaining activity at 0.0156 µM", "setting": "MMP-2; [5]", "value": 104, "unit": "%"}, {"measurement": "remaining activity at 0.08 µM", "setting": "MMP-2; [5]", "value": 94, "unit": "%"}, {"measurement": "remaining activity at 0.39 µM", "setting": "MMP-2; [5]", "value": 105, "unit": "%"}, {"measurement": "remaining activity at 1.95 µM", "setting": "MMP-2; [5]", "value": 107, "unit": "%"}, {"measurement": "remaining activity at 9.76 µM", "setting": "MMP-2; [5]", "value": 90.1, "unit": "%"}, {"measurement": "remaining activity at 48.78 µM", "setting": "MMP-2; [5]", "value": 83.6, "unit": "%"}, {"measurement": "remaining activity at 243.9 µM", "setting": "MMP-2; [5]", "value": 67.9, "unit": "%"}, {"measurement": "remaining activity at 1219.51 µM", "setting": "MMP-2; [5]", "value": 0, "unit": "%"}, {"measurement": "remaining activity at 0.0156 µM", "setting": "MMP-2; [6]", "value": 104, "unit": "%"}, {"measurement": "remaining activity at 0.08 µM", "setting": "MMP-2; [6]", "value": 94, "unit": "%"}, {"measurement": "remaining activity at 0.39 µM", "setting": "MMP-2; [6]", "value": 105, "unit": "%"}, {"measurement": "remaining activity at 1.95 µM", "setting": "MMP-2; [6]", "value": 107, "unit": "%"}, {"measurement": "remaining activity at 9.76 µM", "setting": "MMP-2; [6]", "value": 90.1, "unit": "%"}, {"measurement": "remaining activity at 48.78 µM", "setting": "MMP-2; [6]", "value": 83.6, "unit": "%"}, {"measurement": "remaining activity at 243.9 µM", "setting": "MMP-2; [6]", "value": 67.9, "unit": "%"}, {"measurement": "remaining activity at 1219.51 µM", "setting": "MMP-2; [6]", "value": 0, "unit": "%"}, {"measurement": "remaining activity at 0.0156 µM", "setting": "MMP-2; [3]", "value": 104, "unit": "%"}, {"measurement": "remaining activity at 0.08 µM", "setting": "MMP-2; [3]", "value": 94, "unit": "%"}, {"measurement": "remaining activity at 0.39 µM", "setting": "MMP-2; [3]", "value": 105, "unit": "%"}, {"measurement": "remaining activity at 1.95 µM", "setting": "MMP-2; [3]", "value": 107, "unit": "%"}, {"measurement": "remaining activity at 9.76 µM", "setting": "MMP-2; [3]", "value": 90.1, "unit": "%"}, {"measurement": "remaining activity at 48.78 µM", "setting": "MMP-2; [3]", "value": 83.6, "unit": "%"}, {"measurement": "remaining activity at 243.9 µM", "setting": "MMP-2; [3]", "value": 67.9, "unit": "%"}, {"measurement": "remaining activity at 1219.51 µM", "setting": "MMP-2; [3]", "value": 0, "unit": "%"}, {"measurement": "remaining activity at 0.0156098 µM", "setting": "MMP-2; [4]", "value": 104, "unit": "%"}, {"measurement": "remaining activity at 0.0780488 µM", "setting": "MMP-2; [4]", "value": 94, "unit": "%"}, {"measurement": "remaining activity at 0.390244 µM", "setting": "MMP-2; [4]", "value": 105, "unit": "%"}, {"measurement": "remaining activity at 1.95122 µM", "setting": "MMP-2; [4]", "value": 107, "unit": "%"}, {"measurement": "remaining activity at 9.7561 µM", "setting": "MMP-2; [4]", "value": 90.1, "unit": "%"}, {"measurement": "remaining activity at 48.7805 µM", "setting": "MMP-2; [4]", "value": 83.6, "unit": "%"}, {"measurement": "remaining activity at 243.902 µM", "setting": "MMP-2; [4]", "value": 67.9, "unit": "%"}, {"measurement": "remaining activity at 1219.51 µM", "setting": "MMP-2; [4]", "value": 0, "unit": "%"}]}
